{"source": "patent US10533015B1", "about": "“Opioid receptor antagonist prodrugs” (Nirsum Laboratories, Inc., priority 2019, dated 2020)", "key": {"[1]": {"assay": "Rat pharmacokinetic studies, intramuscular", "format": "in vivo, male Sprague Dawley Rats", "details": "0.80 mg/kg, saline", "procedure": "The purpose of this study is to determine the pharmacokinetics of test compounds in plasma, following intramuscular administration to male Sprague Dawley Rats (n=3, unless otherwise specified).\nThe dose formulation of 400 mg base equivalents/ml in sesame oil+1% benzyl alcohol (unless otherwise specified) was administered by intramuscular injection. The dose volume was determined by the animals' body weight determined on the morning of dosing day.\nEach collected blood sample was centrifuged for 4 minutes at 4° C. and 10000 rpm for plasma collection. Plasma was collected and transferred into a pre-labeled PP tube in dry ice at each time point and precipitated immediately using ACN at a ratio of 1:4 (plasma:ACN). Centrifuged again (10 minutes, 12000 rpm) and obtain the supernatant. After terminal collection, all supernatant was stored at approximately −80° C. until bioanalysis.\nLC-MS/MS methods for the quantitative determination of test compound in biological matrix were developed. […] The sample analysis was performed concurrently with a set of calibration standards and two sets of QC samples using the LC-MS/MS method.\nPlasma concentration versus time data was analyzed by non-compartmental approaches using the Phoenix WinNonlin 6.3 software program. Cmax, Tmax, T1/2, AUC(0-t), AUC(0-inf), MRT(0-t), MRT(0-inf) and graphs of plasma concentration versus time profile were prepared."}, "MOR": {"biological_target": "T1, MOR (Homo sapiens, UniProt P35372)", "T1 construct": "expressed in transfected cells", "T1 sequence (P35372 whole entry)": "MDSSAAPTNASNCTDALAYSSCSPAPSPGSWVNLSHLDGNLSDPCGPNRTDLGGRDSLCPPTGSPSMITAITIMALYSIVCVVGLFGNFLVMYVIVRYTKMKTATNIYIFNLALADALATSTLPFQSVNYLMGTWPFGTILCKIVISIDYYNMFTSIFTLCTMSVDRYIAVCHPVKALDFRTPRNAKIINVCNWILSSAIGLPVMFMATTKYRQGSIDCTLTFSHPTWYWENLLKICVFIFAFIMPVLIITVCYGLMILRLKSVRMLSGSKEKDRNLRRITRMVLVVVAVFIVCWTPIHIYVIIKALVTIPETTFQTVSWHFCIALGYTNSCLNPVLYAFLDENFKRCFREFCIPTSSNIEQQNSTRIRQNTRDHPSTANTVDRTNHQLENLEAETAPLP", "assay": "Opioid receptor binding assay, MOR ([3H]DAMGO)", "details": "MaxDose 10000 nM", "procedure": "(§1) Receptor binding assays were performed to assess the ability of compounds to inhibit binding to radiolabeled ligand.\n(§2) The stable cell lines were established and prepared cell membrane obtained using these cell lines.\n(§3) 3) Assay Procedure 1) Transfer 1 μl of specified concentration compound to assay plate according to the plate map for nonspecific binding. Transfer 1 μl of DMSO to assay plate according to plate map for total binding. 2) Follow the plate map. Dispense 99 μl of membrane stocks into the plate. 3) Add 100 μl of radio ligand. 4) Seal the plates. Incubate at RT for 1 hour. 5) Soak the Unifilter-96 GF/C filter plates with 50 μl of 0.3% PEI per well for at least 0.5 hour at room temperature. 6) When binding assays are completed, filter the reaction mixture through GF/C plates using Perkin Elmer Filtermate Harvester, and then wash each plate for 4 times with cold wash buffer. 7) Dry the filter plates for 1 hour at 50 degrees. 8) After drying, seal the bottom of the filter plate wells using Perkin Elmer Unifilter-96 backing seal tape. Add 50 μl of Perkin Elmer Microscint 20 cocktail. Seal top of filter plates with Perkin Elmer TopSeal-A sealing film. 9) Count ^3H trapped on filter using Perkin Elmer MicroBeta2 Reader second day. 10) Analyze the data with GraphPad Prism 5. […]"}, "KOR": {"biological_target": "T2, KOR (Homo sapiens, UniProt P41145)", "T2 construct": "expressed in transfected cells", "T2 sequence (P41145 whole entry)": "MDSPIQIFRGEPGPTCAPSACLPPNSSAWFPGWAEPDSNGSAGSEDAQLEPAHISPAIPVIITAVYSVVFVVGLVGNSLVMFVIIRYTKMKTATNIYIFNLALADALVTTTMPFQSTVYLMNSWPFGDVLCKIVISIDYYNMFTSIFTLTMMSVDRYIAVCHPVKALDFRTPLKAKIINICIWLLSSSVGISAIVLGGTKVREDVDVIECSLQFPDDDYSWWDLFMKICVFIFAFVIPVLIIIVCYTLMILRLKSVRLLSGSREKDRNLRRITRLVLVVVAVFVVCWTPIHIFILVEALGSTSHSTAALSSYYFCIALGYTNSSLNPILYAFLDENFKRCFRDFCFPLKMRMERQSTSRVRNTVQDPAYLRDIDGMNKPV", "assay": "Opioid receptor binding assay, KOR ([3H]Diprenorphine)", "details": "MaxDose 10000 nM", "procedure": "as §1, §2, §3"}, "[2]": {"details": "cited from earlier work"}, "[3]": {"assay": "Plasma stability assay, rat plasma", "format": "in vitro ADME", "details": "10 μM, 37° C.", "method_in_brief": "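Rat plasma incubations were sampled at 0, 15, 120, 480 and 1440 min. For dog, monkey and human plasma, compounds at 2 μM (1% final solvent) were incubated at 37 °C and sampled at 0, 10, 30, 60 and 120 min. Duplicates; % parent remaining measured by HPLC-MS.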"}, "[4]": {"assay": "not given", "remark": "listed apart in the source"}, "[5]": {"assay": "Polymorph screening of solid state drug substances", "details": "for Dry method and appearance: after stirring 50 °C 72 hours, dried solid; for XRPD results (Dried): dried solid after 50 °C 72 hours; for Visual observation 50° C. / Visual observation RT: target conc. 100 mg/ml"}, "[6]": {"details": "heating temp. 60 °C, obs. temp. 25 °C"}, "[7]": {"details": "heating temp. 60 °C, obs. temp. 40 °C"}}, "note": "Like-named read-outs stand apart in the source and are kept apart here.", "data": [{"smiles": "C=C1CC[C@@]2(O)C3Cc4ccc(O)c5c4[C@@]2(CCN3CC2CC2)[C@H]1O5.Cl", "note": "[Nalmefene HCl-IR]", "values": [{"measurement": "AUC0-inf (ng · h/mL) nalmefene", "setting": "[1]", "result": 66.0, "unit": "ng·h/mL"}, {"measurement": "Terminal Half-life t1/2 (hour) nalmefene", "setting": "[1]", "result": 0.87, "unit": "h"}]}, {"smiles": "C=C1CC[C@@]2(O)C3Cc4ccc(OCOC(=O)OCCCCCCCCCCCCCCCC)c5c4[C@@]2(CCN3CC2CC2)[C@H]1O5", "note": "[Compound 34, (((4aS,7aS,12bS)-3-(cyclopropylmethyl)-4a-hydroxy-7-methylene-2,3,4,4a,5,6,7,7a-octahydro-1H-4,12-methanobenzofuro[3,2-e]isoquinolin-9-yl)oxy)methyl hexadecyl carbonate]", "values": [{"measurement": "Equilibrium solubility (mg/mL) Water", "setting": "Water, heating temp. 40 °C, obs. temp. 40 °C", "result": "<0.001", "unit": "mg/mL"}, {"measurement": "% Inh@MaxDose", "setting": "MOR", "result": 92.7, "unit": "%"}, {"measurement": "% Inh@MaxDose", "setting": "KOR", "result": 68.1, "unit": "%"}]}, {"smiles": "Oc1ccc2c3c1O[C@H]1[C@H](O)CC[C@@]4(O)[C@@H](C2)N(CC2CC2)CC[C@]314", "note": "[6-β-naltrexol]", "values": [{"measurement": "time of peak plasma levels after oral dosing", "setting": "[2]", "result": "within one hour"}, {"measurement": "mean elimination half-life", "setting": "[2]; oral dosing", "result": "thirteen"}]}, {"smiles": "C=C1CC[C@@]2(O)C3Cc4ccc(OC(=O)CCCCCCCCCCCCCCC)c5c4[C@@]2(CCN3CC2CC2)[C@H]1O5", "note": "[Compound 56, (4aS,7aS,12bS)-3-(cyclopropylmethyl)-4a-hydroxy-7-methylene-2,3,4,4a,5,6,7,7a-octahydro-1H-4,12-methanobenzofuro[3,2-e]isoquinolin-9-yl palmitate]", "values": [{"measurement": "Approximate Solubility (mg/mL) in Excipient: Cottonseed oil", "setting": "[6]", "result": "<50", "unit": "mg/mL"}, {"measurement": "Approximate Solubility (mg/mL) in Excipient: Cottonseed oil", "setting": "[7]", "result": "25 to 50", "unit": "mg/mL"}, {"measurement": "Approximate Solubility (mg/mL) in Excipient: Ethanol", "setting": "Ethanol, heating temp. 60 °C, obs. temp. 40 °C", "result": "<40.4", "unit": "mg/mL"}, {"measurement": "Approximate Solubility (mg/mL) in Excipient: Sesame oil", "setting": "[6]", "result": "<50", "unit": "mg/mL"}, {"measurement": "Approximate Solubility (mg/mL) in Excipient: Sesame oil", "setting": "[7]", "result": "25 to 50", "unit": "mg/mL"}, {"measurement": "% remaining at time point", "setting": "[3]; 0 min", "result": 100, "unit": "%"}, {"measurement": "% remaining at time point", "setting": "[3]; 15 min", "result": 73.1, "unit": "%"}, {"measurement": "% remaining at time point", "setting": "[3]; 120 min", "result": 56.7, "unit": "%"}, {"measurement": "% remaining at time point", "setting": "[3]; 480 min", "result": 35.8, "unit": "%"}, {"measurement": "% remaining at time point", "setting": "[3]; 1440 min", "result": 16.8, "unit": "%"}, {"measurement": "melting point", "setting": "[4]", "result": 48.95, "unit": "°C"}]}, {"smiles": "C=C1CC[C@@]2(O)C3Cc4ccc(OC(=O)NC(C)(C)C)c5c4[C@@]2(CCN3CC2CC2)[C@H]1O5", "note": "[Compound 40, (4aS,7aS,12bS)-3-(cyclopropylmethyl)-4a-hydroxy-7-methylene-2,3,4,4a,5,6,7,7a-octahydro-1H-4,12-methanobenzofuro[3,2-e]isoquinolin-9-yl tert-butylcarbamate]", "values": [{"measurement": "Dry method and appearance", "setting": "[5]; Acetone", "result": "Evaporation/white powder"}, {"measurement": "XRPD results (Dried)", "setting": "[5]; Acetone", "result": "Amorphous"}, {"measurement": "Visual observation 50° C.", "setting": "[5]; Acetone", "result": "Clear"}, {"measurement": "Visual observation RT", "setting": "[5]; Acetone", "result": "Slurry"}, {"measurement": "Dry method and appearance", "setting": "[5]; EtOAc", "result": "Evaporation/white powder"}, {"measurement": "XRPD results (Dried)", "setting": "[5]; EtOAc", "result": "Pattern A"}, {"measurement": "Visual observation 50° C.", "setting": "[5]; EtOAc", "result": "Clear"}, {"measurement": "Visual observation RT", "setting": "[5]; EtOAc", "result": "Slurry"}, {"measurement": "Dry method and appearance", "setting": "[5]; Heptane", "result": "Centrifugation/white powder"}, {"measurement": "XRPD results (Dried)", "setting": "[5]; Heptane", "result": "Pattern A"}, {"measurement": "Visual observation 50° C.", "setting": "[5]; Heptane", "result": "Slurry"}, {"measurement": "Visual observation RT", "setting": "[5]; Heptane", "result": "Slurry"}, {"measurement": "Dry method and appearance", "setting": "[5]; Isopropanol", "result": "Evaporation/oil"}, {"measurement": "XRPD results (Dried)", "setting": "[5]; Isopropanol", "result": "Amorphous"}, {"measurement": "Visual observation 50° C.", "setting": "[5]; Isopropanol", "result": "Clear"}, {"measurement": "Visual observation RT", "setting": "[5]; Isopropanol", "result": "Slurry"}, {"measurement": "Dry method and appearance", "setting": "[5]; MTBE", "result": "Evaporation/white powder"}, {"measurement": "XRPD results (Dried)", "setting": "[5]; MTBE", "result": "Amorphous"}, {"measurement": "Visual observation 50° C.", "setting": "[5]; MTBE", "result": "Clear"}, {"measurement": "Visual observation RT", "setting": "[5]; MTBE", "result": "Clear"}, {"measurement": "melting point", "setting": "[4]", "result": 107.6, "unit": "°C"}]}]}
